Columns and labels:
HL-60 = experiment: Antiproliferative activity against human HL-60 cells assessed as cell growth inhibition measured after 72 hrs by trypan blue staining based assay; assay type: functional; conditions: HL-60, 72 h
KE-37 = experiment: Anticancer activity against human KE-37 cells assessed as reduction in cell viability; assay type: functional, cell-based
K562 = experiment: Antiproliferative activity against human K562 cells assessed as cell growth inhibition; assay type: functional, cell-based
MDA-MB-231 [1] = experiment: Antiproliferative activity against human MDA-MB-231 cells assessed as cell growth inhibition by SRB assay; assay type: functional, cell-based
MCF7 [2] = experiment: Cytotoxicity against human MCF7 cells assessed as cell growth inhibition after 48 hrs by MTT assay; assay type: functional, cell-based; conditions: MCF7, 48 h
HepG2 [3] = experiment: Antiproliferative activity against human HepG2 cells assessed as cell growth inhibition incubated for 48 hrs by MTT assay; assay type: functional, cell-based
PANC-1 = experiment: Antiproliferative activity against human PANC-1 cells assessed as cell growth inhibition incubated for 48 hrs by MTT assay; assay type: functional, cell-based; conditions: PANC-1, 48 h
SGC-7901 = experiment: Antiproliferative activity against human SGC-7901 cells assessed as cell growth inhibition; assay type: functional, cell-based
[4] = Oral bioavailability in Sprague-Dawley rat at 10 mg/kg measured up to 24 hrs by LC-MS/MS analysis; assay type: ADME, organism-based; conditions: in vivo
A549 (Homo sapiens) = experiment: Antiproliferative activity against human A549 cells assessed as cell growth inhibition incubated for 48 hrs by MTT assay; conditions: A549, 48 h
MCF7 [5] = experiment: Cytotoxicity against human MCF7 cells assessed as reduction in cell growth by MTT assay; assay type: functional, cell-based
A549 [6] = experiment: Cytotoxicity against human A549 cells assessed as reduction in cell growth by MTT assay; assay type: functional, cell-based
HeLa [7] = experiment: Anticancer activity against human HeLa cells assessed as inhibition of cell growth by SRB assay; assay type: functional, cell-based
HeLa [8] = experiment: Cytotoxicity against human HeLa cells assessed as reduction in cell growth by MTT assay; assay type: functional, cell-based
MCF7 [9] = experiment: Cytotoxicity against human MCF7 cells assessed as reduction in cell growth measured after 48 hrs by MTT assay; assay type: functional, cell-based; conditions: MCF7, 48 h
HeLa [10] = experiment: Cytotoxicity against human HeLa cells assessed as reduction in cell growth measured after 48 hrs by MTT assay; assay type: functional, cell-based
A549 [11] = experiment: Cytotoxicity against human A549 cells assessed as reduction in cell growth measured after 48 hrs by MTT assay; assay type: functional, cell-based; conditions: A549, 48 h
HeLa [12] = experiment: Cytotoxicity against human HeLa cells assessed as cell growth inhibition; assay type: functional, cell-based
SW-620 = experiment: Anticancer activity against human SW620 cells assessed as reduction in cell viability measured after 72 hrs by MTT assay; assay type: functional, cell-based; conditions: SW-620, 72 h
HCT-116 [13] = experiment: Anticancer activity against human HCT-116 cells assessed as reduction in cell viability measured after 72 hrs by MTT assay; assay type: functional, cell-based; conditions: HCT-116, 72 h
HCT-116 [14] = experiment: Antiproliferative activity against human HCT-116 cells assessed as reduction in cell viability incubated for 72 hrs by MTT assay; assay type: functional, cell-based; conditions: HCT-116, 72 h
MDA-MB-231 [15] = experiment: Antiproliferative activity against human MDA-MB-231 cells assessed as reduction in cell proliferation incubated for 72 hrs by CellTiter-Glo reagent based assay; assay type: functional; conditions: MDA-MB-231, 72 h
[16] = Antiproliferative activity against human H357 cells assessed as reduction in cell proliferation incubated for 72 hrs by CellTiter-Glo reagent based assay; assay type: functional; conditions: H357, 72 h
SMMC-7721 = experiment: Antiproliferative activity against human SMMC-7721 cells assessed as reduction in cell viability incubated for 48 hrs by MTT assay; assay type: functional, cell-based; conditions: SMMC-7721, 48 h
Bel-7402 = experiment: Antiproliferative activity against human Bel-7402 cells assessed as reduction in cell viability incubated for 48 hrs by MTT assay; assay type: functional, cell-based; conditions: Bel-7402, 48 h
MHCC97 = experiment: Antiproliferative activity against human MHCC97 cells assessed as inhibition of cell growth measured after 3 days by CellTiter-Glo assay; assay type: functional, cell-based; conditions: MHCC97, 72 h
Hep 3B2 = experiment: Antiproliferative activity against human Hep3B cells assessed as reduction in cell viability incubated for 48 hrs by MTT assay; assay type: functional, cell-based
MCF7 [17] = experiment: Anticancer activity against human MCF7 cells assessed as inhibition of cell growth incubated for 48 hrs by MTT assay; assay type: functional, cell-based; conditions: MCF7, 48 h
A-375 = experiment: Anticancer activity against human A-375 cells assessed as inhibition of cell growth incubated for 48 hrs by MTT assay; assay type: functional, cell-based; conditions: A-375, 48 h
A549 [18] = experiment: Anticancer activity against human A549 cells assessed as inhibition of cell growth incubated for 48 hrs by MTT assay; assay type: functional, cell-based; conditions: A549, 48 h
MCF7 [19] = experiment: Cytotoxicity against human MCF7 cells assessed as reduction in cell growth incubated for 5 days by MTT assay; assay type: functional, cell-based; conditions: MCF7, 120 h
[20] = Cytotoxicity against human HEK cells assessed as reduction in cell growth incubated for 5 days by MTT assay; assay type: functional, cell-based; conditions: HEK293, 120 h
HCT-116 [21] = experiment: Cytotoxicity against human HCT-116 cells assessed as reduction in cell growth measured after 48 hrs by MTT assay; assay type: functional, cell-based; conditions: HCT-116, 48 h
MCF7 [22] = experiment: Cytotoxicity against human MCF7 cells assessed as inhibition of cell growth by resazurin microplate assay; assay type: functional, cell-based
4T1 = experiment: Cytotoxicity against mouse 4T1 cells assessed as inhibition of cell proliferation incubated for 72 hrs by MTT assay; assay type: functional, cell-based; conditions: 4T1, 72 h
MCF7 [23] = experiment: Cytotoxicity against human MCF7 cells assessed as inhibition of cell proliferation incubated for 72 hrs by MTT assay; assay type: functional, cell-based; conditions: MCF7, 72 h
HepG2 [24] = experiment: Cytotoxicity against human HepG2 cells assessed as reduction in cell viability measured after 24 hrs by MTT assay; assay type: functional, cell-based; conditions: HepG2, 24 h

`O=C(N/N=C/c1c(Cl)c2ccccc2oc1=O)c1ccccc1` gave an IC50 (HL-60) of 2.9 µM, an IC50 (KE-37) of 5.3 µM and an IC50 (K562) of 7.2 µM. It also gave an IC50 (MDA-MB-231 [1]) of 9.1 µM.

Compound `COc1ccc(-c2cc(-c3cc4ccccc4oc3=O)nc(Cc3ccc(F)cc3)n2)cc1` has an IC50 (MCF7 [2]) of 2.23 µM.

Work on `COc1cc(Cl)ccc1S(=O)(=O)Nc1ccc2oc(=O)ccc2c1` yielded an IC50 (HepG2 [3]) of 4.75 µM, an IC50 (PANC-1) of 7.02 µM and an IC50 (SGC-7901) of 6.39 µM. For the same compound, the bioavailability [4] was 49.4% and the IC50 (A549 (Homo sapiens)) was 4.63 µM.

Compound `Cc1c(Cc2ccc(NC(=O)Nc3ccc(Br)cc3)nc2)c(=O)oc2cc(O)c(C(C)(C)C)cc12` has an IC50 (MCF7 [5]) of 2.56 µM.

Compound `Cc1c(Cc2ccc(NC(=O)Nc3ccccc3Cl)nc2)c(=O)oc2cc(O)c(C(C)(C)C)cc12` has an IC50 (A549 [6]) of 4.38 µM.

For `Cc1cc(=O)oc2cc(OCCOCCN3C(=O)C(=O)c4cc(F)ccc43)ccc12`, the IC50 (HeLa [7]) was 11.5 µM.

With `Cc1c(Cc2ccc(NC(=O)Nc3cccc(Cl)c3)nc2)c(=O)oc2cc(O)c(C(C)(C)C)cc12` the IC50 (HeLa [8]) was 2.17 µM.

Work on `COc1ccc2oc(=O)c(/C=C3\SC(=O)N(C(=O)c4ccc(Cl)cc4)C3=O)cc2c1` yielded an IC50 (MCF7 [9]) of 0.95 µM, an IC50 (HeLa [10]) of 0.95 µM and an IC50 (A549 [11]) of 0.95 µM.

`CN(C)c1ccc2c(c1)O/C(=C(/C#N)c1cc[n+](C)cn1)C=C2C(F)(F)F` gave an IC50 (HeLa [12]) of 1.1 µM.

In the case of `O=C(OCC#CCOc1no[n+]([O-])c1S(=O)(=O)c1ccccc1)c1cc2ccccc2oc1=O`, the IC50 (SW-620) is reported as 1.86 µM and the IC50 (HCT-116 [13]) is reported as 3.46 µM.

In the case of `CCN(CC)c1ccc2cc(C(=O)/C=C/c3ccc(OC)c(O)c3)c(=O)oc2c1`, the IC50 (HCT-116 [14]) is reported as 3.6 µM.

`C/C(=N\c1ccc(S(N)(=O)=O)cc1)c1cc2ccccc2oc1=O` gave an IC50 (MDA-MB-231 [15]) of 7.78 µM and an IC50 [16] of 8.68 µM.

Work on `O=c1oc2ccccc2c(O)c1C(c1cccc(Oc2ccccc2)c1)c1c(O)c2ccccc2oc1=O` yielded an IC50 (SMMC-7721) of 6 µM, an IC50 (Bel-7402) of 8 µM and an IC50 (MHCC97) of 7 µM. The IC50 (Hep 3B2) was 9 µM.

In the case of `Cc1ccc(NCc2cc(=O)oc3ccc4ccccc4c23)cc1`, the IC50 (MCF7 [17]) is reported as 5.17 µM, the IC50 (A-375) is reported as 9.02 µM and the IC50 (A549 [18]) is reported as 4.29 µM.

In the case of `CC(c1cc2ccccc2oc1=O)(c1c[nH]c2ccc(Br)cc12)c1c[nH]c2ccc(Br)cc12`, the IC50 (MCF7 [19]) is reported as 21.2 µM and the IC50 [20] is reported as greater than 50 µM.

Compound `COc1ccc(-c2cc(-c3cc4ccccc4oc3=O)nc(N)c2C#N)cc1` has an IC50 (HCT-116 [21]) of 9.9 µM and an IC50 (MCF7 [22]) of 14.1 µM.

Work on `O=C(Cc1cc(=O)oc2cc(O)ccc12)NCCCCCCCCCNc1c2c(nc3ccccc13)CCCC2` yielded an IC50 (4T1) of 5.7 µM and an IC50 (MCF7 [23]) of 6 µM.

`O=C(Nc1ccc(/C=C/C(=O)c2cc3ccccc3oc2=O)cc1)Nc1ccc([N+](=O)[O-])cc1` gave an IC50 (HepG2 [24]) of 2.33 µM.

Source: ChEMBL document CHEMBL5357036, “Latest developments in coumarin-based anticancer agents: mechanism of action and structure-activity relationship studies” (RSC Med Chem, 2024)
